The values that follow come from patent US7528274B2, “Acylthiols and component thiol compositions as anti-HIV and anti-retroviral agents” (The United States of America as represented by the …, priority 2001, dated 2009).

What all share (type): cell-based
Data set [1] has as its system CEM-SS cells. The experiment in a line: XTT assay, cytotoxicity (cellular growth inhibition) in CEM-SS cells. The note with it: read-out: IC50 (50% cytotoxicity).
Text: (§1) One exemplary means to determine antiviral activity is with CEM-SS cells and virus (e.g., HIV-1RF) (MOI=0.01) using the XTT (2,3-bis[2-methoxy-4-nitro-5-sulfophenyl]-5-[(phenylamino)carbonyl]-2H-tetrazolium hydroxide) cytoprotection assay, as described by Rice (1993) PNAS 90:9721-9724, and Rice (1997) Antimicrob. Agents Chemother. […] Briefly, cells are infected with HIV-1RF (or other virus to be tested) in the presence of various dilutions of test compounds or control compounds. The cultures are incubated for seven days. […] The cell death is measured by XTT dye reduction. XTT is a soluble tetrazolium dye that measures mitochondrial energy output, similar to MTT. […] Individual assays are done in duplicate using a sister plate method.
as §1, with “{2,3-bis[2-methoxy-4-nitro-5-sulfophenyl]-5- -[(phenylamino)carbonyl]-2H-tetrazolium hydroxide}” for “(2,3-bis[2-methoxy-4-nitro-5-sulfophenyl]-5-[(phenylamino)carbonyl]-2H-tetrazolium hydroxide)”, “Proc. Natl. Acad. Sci. USA 90: 9721-9724,” for “PNAS 90:9721-9724,”, “Agents &” for “Agents”, “and controls.” for “or control compounds.”, “method. […] Compound numbers therein refer to the numbers used in FIG. 1.” for “method.”
(Tetrazolium dyes change colour on reduction, which living cells bring about.)

Data set [2] deals with HIV-1RF. Nature of the data set: XTT cytoprotection assay, CEM-SS cells infected with HIV-1RF. The note with it: HIV-1RF, CEM-SS cells; for EC50: read-out: EC50 (50% cytoprotection), seven days, XTT.
Text: as §1
as §1, with “{2,3-bis[2-methoxy-4-nitro-5-sulfophenyl]-5- -[(phenylamino)carbonyl]-2H-tetrazolium hydroxide}” for “(2,3-bis[2-methoxy-4-nitro-5-sulfophenyl]-5-[(phenylamino)carbonyl]-2H-tetrazolium hydroxide)”, “Proc. Natl. Acad. Sci. USA 90: 9721-9724,” for “PNAS 90:9721-9724,”, “Agents &” for “Agents”, “and controls.” for “or control compounds.”, “method. […] Compound numbers therein refer to the numbers used in FIG. 1.” for “method.”

Data set [3] deals with cells. The experiment in a line: XTT assay, cytotoxicity, HIV-1 1026040 section.
Text: as §1, with “{2,3-bis[2-methoxy-4-nitro-5-sulfophenyl]-5- -[(phenylamino)carbonyl]-2H-tetrazolium hydroxide}” for “(2,3-bis[2-methoxy-4-nitro-5-sulfophenyl]-5-[(phenylamino)carbonyl]-2H-tetrazolium hydroxide)”, “Proc. Natl. Acad. Sci. USA 90: 9721-9724,” for “PNAS 90:9721-9724,”, “Agents &” for “Agents”, “and controls.” for “or control compounds.”, “method. […] Compound numbers therein refer to the numbers used in FIG. 1.” for “method.”

The test system of data set [4] is HIV-1 144-44 (mutation L10I/M46I/I54V/L63P/A71V/V82A/L90M). The experiment in a line: XTT assay against drug resistant mutant HIV-1 144-44 in PBMCs. The note with it: HIV-1 144-44/PBMCs.
Text: as §1, with “{2,3-bis[2-methoxy-4-nitro-5-sulfophenyl]-5- -[(phenylamino)carbonyl]-2H-tetrazolium hydroxide}” for “(2,3-bis[2-methoxy-4-nitro-5-sulfophenyl]-5-[(phenylamino)carbonyl]-2H-tetrazolium hydroxide)”, “Proc. Natl. Acad. Sci. USA 90: 9721-9724,” for “PNAS 90:9721-9724,”, “Agents &” for “Agents”, “and controls.” for “or control compounds.”, “method. […] Compound numbers therein refer to the numbers used in FIG. 1.” for “method.”

The subject of data set [5] is HIV-1 (RoJo). Particulars: HIV-1 (RoJo/PBMCs).
Text: as §1, with “{2,3-bis[2-methoxy-4-nitro-5-sulfophenyl]-5- -[(phenylamino)carbonyl]-2H-tetrazolium hydroxide}” for “(2,3-bis[2-methoxy-4-nitro-5-sulfophenyl]-5-[(phenylamino)carbonyl]-2H-tetrazolium hydroxide)”, “Proc. Natl. Acad. Sci. USA 90: 9721-9724,” for “PNAS 90:9721-9724,”, “Agents &” for “Agents”, “and controls.” for “or control compounds.”, “method. […] Compound numbers therein refer to the numbers used in FIG. 1.” for “method.”

Data set [6] concerns PBMCs. The experiment in a line: XTT assay, cytotoxicity, HIV-1 144-44/PBMCs section.
Text: as §1, with “{2,3-bis[2-methoxy-4-nitro-5-sulfophenyl]-5- -[(phenylamino)carbonyl]-2H-tetrazolium hydroxide}” for “(2,3-bis[2-methoxy-4-nitro-5-sulfophenyl]-5-[(phenylamino)carbonyl]-2H-tetrazolium hydroxide)”, “Proc. Natl. Acad. Sci. USA 90: 9721-9724,” for “PNAS 90:9721-9724,”, “Agents &” for “Agents”, “and controls.” for “or control compounds.”, “method. […] Compound numbers therein refer to the numbers used in FIG. 1.” for “method.”

Data set [7] deals with HIV-1 1026040 (mutation V32I/M46I/L63P/L90M). The experiment in a line: XTT assay against drug resistant mutant HIV-1 1026040.
Text: as §1, with “{2,3-bis[2-methoxy-4-nitro-5-sulfophenyl]-5- -[(phenylamino)carbonyl]-2H-tetrazolium hydroxide}” for “(2,3-bis[2-methoxy-4-nitro-5-sulfophenyl]-5-[(phenylamino)carbonyl]-2H-tetrazolium hydroxide)”, “Proc. Natl. Acad. Sci. USA 90: 9721-9724,” for “PNAS 90:9721-9724,”, “Agents &” for “Agents”, “and controls.” for “or control compounds.”, “method. […] Compound numbers therein refer to the numbers used in FIG. 1.” for “method.”

Data set [8] has as its system CEM-SS. The experiment in a line: XTT assay, cytotoxicity, HIV-2 (Rod/CEM-SS) section.
Text: as §1, with “{2,3-bis[2-methoxy-4-nitro-5-sulfophenyl]-5- -[(phenylamino)carbonyl]-2H-tetrazolium hydroxide}” for “(2,3-bis[2-methoxy-4-nitro-5-sulfophenyl]-5-[(phenylamino)carbonyl]-2H-tetrazolium hydroxide)”, “Proc. Natl. Acad. Sci. USA 90: 9721-9724,” for “PNAS 90:9721-9724,”, “Agents &” for “Agents”, “and controls.” for “or control compounds.”, “method. […] Compound numbers therein refer to the numbers used in FIG. 1.” for “method.”

The subject of data set [9] is SIV (Mac 251). The experiment in a line: XTT cytoprotection assay, SIV (Mac 251).
Text: as §1, with “{2,3-bis[2-methoxy-4-nitro-5-sulfophenyl]-5- -[(phenylamino)carbonyl]-2H-tetrazolium hydroxide}” for “(2,3-bis[2-methoxy-4-nitro-5-sulfophenyl]-5-[(phenylamino)carbonyl]-2H-tetrazolium hydroxide)”, “Proc. Natl. Acad. Sci. USA 90: 9721-9724,” for “PNAS 90:9721-9724,”, “Agents &” for “Agents”, “and controls.” for “or control compounds.”, “method. […] Compound numbers therein refer to the numbers used in FIG. 1.” for “method.”

Data set [10] deals with PBMCs. Nature of the data set: XTT assay, cytotoxicity, HIV-1 (RoJo/PBMCs) section.
Text: as §1, with “{2,3-bis[2-methoxy-4-nitro-5-sulfophenyl]-5- -[(phenylamino)carbonyl]-2H-tetrazolium hydroxide}” for “(2,3-bis[2-methoxy-4-nitro-5-sulfophenyl]-5-[(phenylamino)carbonyl]-2H-tetrazolium hydroxide)”, “Proc. Natl. Acad. Sci. USA 90: 9721-9724,” for “PNAS 90:9721-9724,”, “Agents &” for “Agents”, “and controls.” for “or control compounds.”, “method. […] Compound numbers therein refer to the numbers used in FIG. 1.” for “method.”

In data set [11] the test system is cells. The experiment in a line: XTT assay, cytotoxicity, SIV (Mac 251) section.
Text: as §1, with “{2,3-bis[2-methoxy-4-nitro-5-sulfophenyl]-5- -[(phenylamino)carbonyl]-2H-tetrazolium hydroxide}” for “(2,3-bis[2-methoxy-4-nitro-5-sulfophenyl]-5-[(phenylamino)carbonyl]-2H-tetrazolium hydroxide)”, “Proc. Natl. Acad. Sci. USA 90: 9721-9724,” for “PNAS 90:9721-9724,”, “Agents &” for “Agents”, “and controls.” for “or control compounds.”, “method. […] Compound numbers therein refer to the numbers used in FIG. 1.” for “method.”

The subject of data set [12] is HIV-2 (Rod). Nature of the data set: XTT cytoprotection assay, HIV-2 (Rod/CEM-SS).
Text: as §1, with “{2,3-bis[2-methoxy-4-nitro-5-sulfophenyl]-5- -[(phenylamino)carbonyl]-2H-tetrazolium hydroxide}” for “(2,3-bis[2-methoxy-4-nitro-5-sulfophenyl]-5-[(phenylamino)carbonyl]-2H-tetrazolium hydroxide)”, “Proc. Natl. Acad. Sci. USA 90: 9721-9724,” for “PNAS 90:9721-9724,”, “Agents &” for “Agents”, “and controls.” for “or control compounds.”, “method. […] Compound numbers therein refer to the numbers used in FIG. 1.” for “method.”

The subject of data set [13] is HIV-1 virus. Nature of the data set: Infectivity of treated virions, PCR assay for intracellularly-synthesized viral RNA. The source says: The treated virions can also be tested for infectivity. The virions are suspended in media (rather than solubilized) and added to target cells. The cultures are then examined to determine whether the virions are still active. To determine whether the treated virus particles are active, the cells are monitored for the presence of intracellularly-synthesized viral RNA using, for example, the polymerase chain reaction (PCR) (Rice (1993) Proc. Natl. Acad. Sci. USA 90:9721; Turpin (1996) J. Virol. 70:6180). Alternatively, cytoprotection assays can be used (Weislow (1993) J. Natl. Cancer Inst. 81:577). An example of a compound which can be used as a control in the gel mobility shift assay is azodicarbonamide (ADA), a compound which is commercially available from the Aldrich Chemical Company (Milwaukee, Wis.).

Molecules are shown by their SMILES.

On to `CC(C)(C)CC(C)(C)NC(=O)Sc1ccccc1C(=O)N1CC1C(N)=O` (centres unmarked) [Compound 131], for which, in data set [1], the IC50 was 35.8 µM. In addition, in data set [2], the “Therapeutic Index” value came to 80 and the EC50 is 0.45 µM.

On to `Cc1cn([C@H]2C[C@H](N=[N+]=[N-])[C@@H](CO)O2)c(=O)[nH]c1=O` [AZT, 3′-azido-2′, 3′-dideoxythymidine, reference compound], for which the IC50 in data set [3] was greater than 1 µM; in data set [6], greater than 200 µM; in data set [8] it was greater than 1 µM; in data set [10] it was greater than 4 µM; in data set [11] it was greater than 1 µM. Moreover, the concentration giving a half-maximal response (EC50) turned out to be 1.3 µM in data set [4]; 0.01 µM in data set [5]; 0.006 µM in [7]; 0.02 µM in data set [9]; 0.017 µM in data set [12]. Further, the TI in data set [4] is given as greater than 153; in data set [7], greater than 167.

On to `NC(=O)N=NC(N)=O` [ADA, azodicarbonamide], for which, in data set [13], the “Inactivation of HIV-1 virus” value is “inactivates HIV-1 virus”.

For `NC(=O)C1CN1C(=O)c1ccccc1SC(=O)NC1CCCCC1` (centres unmarked) [Compound 129], the IC50 in data set [3] was greater than 200 µM; in data set [6], greater than 200 µM; in [8] it was 6.54 µM; in data set [10], 184 µM; in [11], 21.8 µM. Moreover, the EC50 stood at 0.17 µM in data set [4]; 3.8 µM in [5]; 0.55 µM in [2]; 4 µM in [7]; 0.29 µM in data set [9]; 0.104 µM in [12]. Moreover, the TI is greater than 1168 in [4] and greater than 51 in [7].

One may read the IC50 as the point on the concentration scale where inhibition reaches its midpoint. By EC50 is commonly meant the concentration at which the effect is half-maximal.
